Reference: patent US20240139347A1, “COMPLEX, VASCULAR CONTRAST AGENT, X-RAY CONTRAST AGENT, METHOD FOR PRODUCING COMPLEX, AND IMAGING METHOD FOR CAPTURING STRUCTURAL CHANGE IN VESSEL” (TOHOKU UNIVERSITY, priority 2021, published 2024)

Experiment: in vivo
Details: BALB/c, mouse, iv
Description: The complex disclosed in the present application is preferably retained in the blood until completion of X-ray CT imaging after administration and is preferably excreted by the kidneys by the time of the next X-ray CT imaging. […] As a matter of course, the half-life in blood may be shorter or longer than the above half-life in blood in the case of imaging a temporary structure instead of imaging structural change over time or using a typical X-ray CT imaging device. The half-life in blood can be adjusted by changing the type of protein or the size of the complex. The “half-life in blood” means the time it takes for the X-ray CT value of the complex to decrease by half from the maximum value after administration in vivo. However, the shortest time at which X-ray CT imaging can be started after administration of a contrast agent is about 5 minutes, and thus the measurement value at the time when X-ray CT imaging is started 5 minutes after administration of the contrast agent is defined as the “maximum value after administration in vivo” in the present specification.
Imaging was performed using a micro X-ray CT device (SkyScan1176, Bruker) under conditions of a tube voltage of 50 kV, a tube current of 500 μA, and 35 μm/voxel, 18 μm/voxel, or 9 μm/voxel. The contrast agents synthesized in Example 1 and Comparative Examples 1 and 2 were imaged in vitro. In vivo, 200 μL of each contrast agent was injected into an anesthetized mouse from the tail vein, and CT imaging was performed once or twice. Slice images were acquired using CTAn (Bruker), and volume rendered images were acquired using CTVOX. CT values were calculated by defining the value of Hounsfield Units (HU) as −1000 for air and 0 for water.
The image before the administration of the contrast agent was taken as 0 min (before injection).
FIGS. 16 and 17 show CT images of mouse hearts before and after intravenous administrations of the contrast agents. […] In addition, in FIGS. 16 and 17, the dotted line circles indicate the contour of the hearts, and the tips of the arrows (white and black) indicate the positions of the septa of the hearts.
FIG. 18 is a graph showing results of measuring changes in CT values of ventricles over time.

With C[C@H](O)C(=O)Nc1c(I)c(C(=O)NC(CO)CO)c(I)c(C(=O)NC(CO)CO)c1I [iopamidol, Iopamidol] the “CT value of ventricles” value was 72 HU, the half-life was under 1 h and the “CT value of ventricles” value (5 min) was 291 HU. For the same compound, the “CT value of ventricles” value (60 min) was 130 HU, the “CT value of ventricles” value (180 min) was 75 HU and the “CT value of ventricles” value (360 min) was 87 HU. The “CT value of ventricles” value (24 h) was 72 HU.
